pEC50, pIC50: −log10 of the molar value.
Assays:
PI3Kδ = PI3Kδ (Homo sapiens (Human), UniProt O00329); assay: Enzymatic activity of PI3K isoforms, TR-FRET assay (PI3Kδ); assay type: biochemical; details: 2× Km ATP, geometric mean if more than one value
Method in brief: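 Recombinant heterodimeric PI3Kβ or PI3Kδ (25-50 pM) was run with 2 μM PIP2 and 2× Km ATP (75-500 μM) at pH 7.4, for 30 min at 25° C. PIP3 formation was detected by TR-FRET displacement of labeled PIP3 from Eu-GRP-1. IC50 values in nM come from four-parameter fits, as geometric means.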

[1] = Hepatocyte stability (parent drug disappearance in cryopreserved hepatocytes); assay type: in vitro ADME, human; details: human, cryopreserved human hepatocytes, human hepatocytes
Protocol: This assay was used to evaluate the metabolic stability of test articles (TA) following incubation in cryopreserved hepatocytes by monitoring parent drug disappearance via LC/MC. The TA was incubated with 1 million hepatocytes/mL at 2 μM substrate in duplicate. The incubation was carried out at 37° C. with 5% CO2 and saturating humidity. Samples were taken at 0, 1, 2, and 4 hours to monitor the disappearance of TA and a half-life (t1/2) was determined. Table 3 below summarizes the human hepatocyte t1/2 values (hours) collected in the Example.

basophils = assay: Basophil activation in human whole blood (Flow2 CAST kit, CD63 flow cytometry); assay type: cell-based; details: Homo sapiens
Protocol: Effect on basophil activation was measured in human whole blood using the Flow2 CAST® kit (Buhlmann Laboratories AG, Baselstrasse, Switzerland) following the protocol provided by the manufacturer with minor modifications. Human whole blood was collected into K2-EDTA venipuncture tubes. Whole blood samples were treated with either DMSO (0.3% final) or a serial dilution of compounds in DMSO for 60 minutes at 37° C. Basophils were then activated either with anti-FcεRI mAb or with fMLP. To activate basophils using the anti-FcεRI mAb; 50 μL of whole blood was mixed with 110 μL of stimulation buffer (B-BAT-STB) and 20 μl of anti-FcεRI (B-BAT-STCON). To activate basophils with fMLP; 50 μL of whole blood was mixed with 80 μL of stimulation buffer (B-BAT-STB) and 50 μL of fMLP (B-CCR-FMLP). Stimulation buffer was used as a negative control. 20 μL of the staining reagent (combination of anti-human CD63-FITC and anti-human CCR3-PE mAbs) was then added to each tube. The tubes were mixed gently and incubated for 25 minutes at 37° C. Subsequently, erythrocytes were lysed and fixed by the addition of 2 mL of lysing solution (B-BAT-LYR) for 10 minutes at room temperature. Cells were pelleted by centrifugation at 1200 rpm for 10 minutes at room temperature in a swing-out rotor. Supernatant was aspirated and cell pellet resuspended in 400 μL of wash buffer. Flow cytometric analysis of the basophil activation was performed on a FC500MPL flow cytometer (Beckman Coulter Inc., Fullerton, Calif.). CCR3-staining and side scatter were applied to gate at least 200 basophils that expressed a high density of CCR3. The percent CD63 positive cells within the gated basophil population were determined in different treatment groups and normalized to the vehicle control (0.3% DMSO) with anti-FcεRI mAb of fMLP stimulus as 100%. Final compound concentration was adjusted to correct for dilution effect of added reagents. The EC50 values were calculated from the analysis of the dose-response curves to a four-parameter equation.

[2] = class symbol, 2 μM substrate, 37° C.
[3] = 2 μM substrate, 37° C., Table 3
[4] = class symbol, human whole blood, basophils activated with anti-FcεRI mAb or fMLP, percent CD63 positive cells
[5] = human whole blood, basophils activated with anti-FcεRI mAb or fMLP, percent CD63 positive cells, geometric mean

PI3Kδ, sequence (O00329 whole entry, canonical isoform): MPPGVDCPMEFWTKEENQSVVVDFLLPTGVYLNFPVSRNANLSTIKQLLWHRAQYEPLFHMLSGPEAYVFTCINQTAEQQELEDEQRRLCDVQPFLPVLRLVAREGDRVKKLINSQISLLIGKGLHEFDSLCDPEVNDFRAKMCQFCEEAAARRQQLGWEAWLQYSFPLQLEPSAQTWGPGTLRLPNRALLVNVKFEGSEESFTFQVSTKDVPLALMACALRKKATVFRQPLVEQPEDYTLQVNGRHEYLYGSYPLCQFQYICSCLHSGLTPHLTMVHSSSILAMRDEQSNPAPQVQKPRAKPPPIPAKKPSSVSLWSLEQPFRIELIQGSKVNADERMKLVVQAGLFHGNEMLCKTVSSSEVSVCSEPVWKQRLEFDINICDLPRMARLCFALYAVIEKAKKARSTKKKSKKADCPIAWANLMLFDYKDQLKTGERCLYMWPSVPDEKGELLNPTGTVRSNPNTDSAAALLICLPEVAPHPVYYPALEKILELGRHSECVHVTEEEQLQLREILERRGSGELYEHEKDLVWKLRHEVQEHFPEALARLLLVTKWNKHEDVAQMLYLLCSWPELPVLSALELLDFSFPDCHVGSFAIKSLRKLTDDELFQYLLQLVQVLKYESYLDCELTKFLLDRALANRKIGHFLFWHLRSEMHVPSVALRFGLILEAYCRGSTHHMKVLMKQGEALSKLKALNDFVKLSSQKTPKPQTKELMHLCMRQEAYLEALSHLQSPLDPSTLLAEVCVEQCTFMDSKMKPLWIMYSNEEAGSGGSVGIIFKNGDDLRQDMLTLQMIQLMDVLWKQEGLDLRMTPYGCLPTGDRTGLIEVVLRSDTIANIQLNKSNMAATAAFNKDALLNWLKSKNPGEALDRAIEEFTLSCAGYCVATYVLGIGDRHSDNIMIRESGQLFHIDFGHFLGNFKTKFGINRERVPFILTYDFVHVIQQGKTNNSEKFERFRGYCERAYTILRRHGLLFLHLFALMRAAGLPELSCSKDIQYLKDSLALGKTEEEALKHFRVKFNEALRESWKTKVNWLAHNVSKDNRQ
PI3Kδ, sequence (P27986 whole entry partner, canonical isoform): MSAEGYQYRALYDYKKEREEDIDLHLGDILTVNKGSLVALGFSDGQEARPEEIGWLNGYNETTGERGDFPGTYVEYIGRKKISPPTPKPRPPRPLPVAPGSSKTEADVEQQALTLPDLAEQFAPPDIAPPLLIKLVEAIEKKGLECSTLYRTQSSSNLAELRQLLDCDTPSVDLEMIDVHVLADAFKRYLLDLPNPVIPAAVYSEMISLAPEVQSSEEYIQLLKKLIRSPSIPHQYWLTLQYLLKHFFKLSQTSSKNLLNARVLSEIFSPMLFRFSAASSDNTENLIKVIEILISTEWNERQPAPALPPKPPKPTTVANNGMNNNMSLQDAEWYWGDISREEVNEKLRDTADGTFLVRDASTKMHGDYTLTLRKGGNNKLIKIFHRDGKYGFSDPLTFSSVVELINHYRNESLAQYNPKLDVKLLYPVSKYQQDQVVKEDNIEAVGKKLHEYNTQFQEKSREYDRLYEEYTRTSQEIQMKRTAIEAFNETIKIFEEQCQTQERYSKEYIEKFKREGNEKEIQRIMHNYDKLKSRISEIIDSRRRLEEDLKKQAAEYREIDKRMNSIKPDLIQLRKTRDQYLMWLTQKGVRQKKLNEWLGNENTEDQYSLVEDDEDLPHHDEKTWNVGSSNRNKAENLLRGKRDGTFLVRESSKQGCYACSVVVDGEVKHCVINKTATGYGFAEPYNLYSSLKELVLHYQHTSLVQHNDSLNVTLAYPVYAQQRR

| pIC50 (PI3Kδ) | half-life at 2 μM [1, 2] [h] | half-life at 2 μM [1, 3] [h] | pEC50 (basophils; [4]) | pEC50 (basophils; [5]) | half-life at 2 μM ([1]; comparison Table 4) [h] | pEC50 (basophils; basophil activation in human whole blood, comparison Table 4) | Structure (SMILES) |
| --- | --- | --- | --- | --- | --- | --- | --- |
| 9.00 | > 10 | > 10 | > 9.00 | 9.15 |  |  | N#Cc1c(N)nc(N)nc1N[C@H](c1nc2c(F)ccc(Cl)c2c(=O)n1-c1cccnc1)C1CC1 [Compound 27, (S)-2,4-diamino-6-((5-chloro-8-fluoro-4-oxo-3-(pyridin-3-yl)-3,4-dihydroquinazolin-2-yl)(cyclopropyl)methylamino)pyrimidine-5-carbonitrile] |
| 8.70 | > 10 | > 10 | > 9.00 | 9.40 |  |  | Cc1cncc(-n2c([C@H](C)Nc3nc(N)nc(N)c3C#N)nc3c(F)ccc(Cl)c3c2=O)c1 [Compound 32, (S)-2,4-diamino-6-(1-(5-chloro-8-fluoro-3-(5-methylpyridin-3-yl)-4-oxo-3,4-dihydroquinazolin-2-yl)ethylamino)pyrimidine-5-carbonitrile] |
| 8.10 | > 10 | > 10 | 7.30 to 8.00 | 8.00 |  |  | N#Cc1c(N)nc(N)nc1N[C@@H](CC1CC1)c1nc2c(F)ccc(Cl)c2c(=O)n1-c1cccnc1 [Compound 29, (S)-2,4-diamino-6-(1-(5-chloro-8-fluoro-4-oxo-3-(pyridin-3-yl)-3,4-dihydroquinazolin-2-yl)-2-cyclopropylethylamino)pyrimidine-5-carbonitrile] |
| 8.70 | > 10 | > 10 | 8.00 to 9.00 | 9.00 |  |  | C[C@H](Nc1nc(N)nc(N)c1C#N)c1nc2cccc(Cl)c2c(=O)n1-c1cncc(F)c1 [Compound 12, (S)-2,4-diamino-6-(1-(5-chloro-3-(5-fluoropyridin-3-yl)-4-oxo-3,4-dihydroquinazolin-2-yl)ethylamino)pyrimidine-5-carbonitrile] |
| 8.30 | 6 to 10 | 7 | 8.00 to 9.00 | 8.15 |  |  | C[C@H](Nc1nc(N)nc(N)c1C#N)c1nc2cccc(Cl)c2c(=O)n1-c1cncc(C2CC2)c1 [Compound 19, (S)-2,4-diamino-6-(1-(5-chloro-3-(5-cyclopropylpyridin-3-yl)-4-oxo-3,4-dihydroquinazolin-2-yl)ethylamino)pyrimidine-5-carbonitrile] |
| 7.85 | > 10 | > 10 | 8.00 to 9.00 | 8.70 |  |  | C[C@H](Nc1nc(N)nc(N)c1C#N)c1nc2ccc(F)cc2c(=O)n1-c1cccnc1 [Compound 5, (S)-2,4-diamino-6-(1-(6-fluoro-4-oxo-3-(pyridin-3-yl)-3,4-dihydroquinazolin-2-yl)ethylamino)pyrimidine-5-carbonitrile] |
| 9.10 | 3 to 6 | 5 | > 9.00 | 9.30 |  |  | Cc1cccc2nc([C@H](C)Nc3nc(N)nc(N)c3C#N)n(-c3cncc(F)c3)c(=O)c12 [Compound 11, (S)-2,4-diamino-6-(1-(3-(5-fluoropyridin-3-yl)-5-methyl-4-oxo-3,4-dihydroquinazolin-2-yl)ethylamino)pyrimidine-5-carbonitrile] |
| 8.70 | > 10 | > 10 | 8.00 to 9.00 | 8.30 |  |  | N#Cc1c(N)nc(N)nc1N[C@H](c1nc2c(F)ccc(Cl)c2c(=O)n1-c1cncc(F)c1)C1CC1 [Compound 33, (S)-2,4-diamino-6-((5-chloro-8-fluoro-3-(5-fluoropyridin-3-yl)-4-oxo-3,4-dihydroquinazolin-2-yl)(cyclopropyl)methylamino)pyrimidine-5-carbonitrile] |
| 9.00 | > 10 | > 10 | > 9.00 | 9.15 |  |  | CC[C@H](Nc1nc(N)nc(N)c1C#N)c1nc2c(F)ccc(Cl)c2c(=O)n1-c1cccnc1 [Compound 26, (S)-2,4-diamino-6-(1-(5-chloro-8-fluoro-4-oxo-3-(pyridin-3-yl)-3,4-dihydroquinazolin-2-yl)propylamino)pyrimidine-5-carbonitrile] |
| 8.52 | > 10 | > 10 | 8.00 to 9.00 | 8.52 |  |  | CC[C@H](Nc1nc(N)nc(N)c1C#N)c1nc2cccc(Cl)c2c(=O)n1-c1cncc(F)c1 [Compound 20, (S)-2,4-diamino-6-(1-(5-chloro-3-(5-fluoropyridin-3-yl)-4-oxo-3,4-dihydroquinazolin-2-yl)propylamino)pyrimidine-5-carbonitrile] |
| 8.70 | > 10 | > 10 | 8.00 to 9.00 | 8.40 |  |  | N#Cc1c(N)nc(N)nc1N[C@H](c1nc2cccc(Cl)c2c(=O)n1-c1cncc(F)c1)C1CC1 [Compound 21, (S)-2,4-diamino-6-((5-chloro-3-(5-fluoropyridin-3-yl)-4-oxo-3,4-dihydroquinazolin-2-yl)(cyclopropyl)methylamino)pyrimidine-5-carbonitrile] |
| 9.22 | > 10 | > 10 | > 9.00 | 9.05 | > 10 | > 9.00 | C[C@H](Nc1nc(N)nc(N)c1C#N)c1nc2cccc(Cl)c2c(=O)n1-c1cccnc1 [Compound 1, (S)-2,4-diamino-6-((1-(5-chloro-4-oxo-3-(pyridin-3-yl)-3,4-dihydroquinazolin-2-yl)ethyl)amino)pyrimidine-5-carbonitrile] |
| 8.22 | 3 to 6 | 4 | 8.00 to 9.00 | 8.15 |  |  | Cc1ncc(F)cc1-n1c([C@H](C)Nc2nc(N)nc(N)c2C#N)nc2cccc(Cl)c2c1=O (atropisomer, axis not shown) [Compound 45, (S)-2,4-diamino-6-(1-(5-chloro-3-(5-fluoro-2-methylpyridin-3-yl)-4-oxo-3,4-dihydroquinazolin-2-yl)ethylamino)pyrimidine-5-carbonitrile] |
| 9.00 | 6 to 10 | 9 | > 9.00 | 9.15 |  |  | C[C@H](Nc1nc(N)nc(N)c1C#N)c1nc2c(Cl)ccc(Cl)c2c(=O)n1-c1cncc(F)c1 [Compound 30, (S)-2,4-diamino-6-(1-(5,8-dichloro-3-(5-fluoropyridin-3-yl)-4-oxo-3,4-dihydroquinazolin-2-yl)ethylamino)pyrimidine-5-carbonitrile] |
